Source: patent US20050107289A1, “Anti-microbial peptides and compositions” (priority 2001, published 2005)
Where a name gives a salt, the structure may show the parent alone. Read-outs that look alike come from different tables or passages of the source. Non-standard residues stand in square brackets, D forms with d. Residues, ends and D or L forms follow the SMILES beside them. Nle = CCCC[C@H](N)C(=O)O

Key:
[1] = test system: vancomycin-resistant Enterococus faecalis (VRE)(ATCC 51575); format: cell-based, Enterococcus faecalis; parameters: key to VRE (in vitro activity): peptide concentration in μg/ml (broth dilution assay); conditions: Table 9
Description: (§1) The antimicrobial activity of the peptides was determined using a broth dilution assay essentially as descried in the guidelines of the National Committee for […] (NCCLS) [National Committee for Clinical Laboratory Standards. Methods for dilution antimicrobial susceptibility tests for bacteria that grow aerobically. Fourth edition. Approved Standard (1997). Document M7-A4. […] The microdilution method has the advantages of requiring less amount of peptide for each assay and the possibility of multiple simultaneous inoculations and was used in most studies. Several of the strains of bacteria tested are further described in Table 3.
(§2) Preparation of peptide solutions. Stock peptide solutions were prepared in 5% DMSO in aq. sucrose (9%). Determination of peptide concentrations was done by quantitative HPLC analysis using known concentrations of internal standards and/or by measuring UV absorption of tryptophane-containing peptide solutions in H2O (λ=280 εTrp: 5690). Serial 2-fold dilutions were made in the above DMSO/aq. sucrose (9%) mixture with concentrations ranging approximately 400-2 μg/ml and aliquots were dispensed in test tubes (100 μl) for the macrodilution test or in microtiter plates (20 μl) for the microdilution assays.
(§3) Inoculum preparation. Overnight cultures of different microorganisms grown in suitable media were diluted 4000 times to an approximate inoculum size of 2.5×10^5 cfu/ml.
(§4) Macrodilution method. Macrodilution methods were performed using procedures similar to those described in the National Committee for Clinical Laboratory Standards. Methods for dilution antimicrobial susceptibility tests for bacteria that grow aerobically. Fourth edition. Approved Standard (1997). Document M7-A4. (NCCLS,Villanova, Pa., 1997). Two ml aliquots of the above inoculum were dispensed to test tubes containing different peptide solutions.
(§5) Microdilution method. Microdilution methods were performed using procedures similar to those described in the National Committee for Clinical Laboratory Standards. Methods for dilution antimicrobial susceptibility tests for bacteria that grow aerobically. Fourth edition. Approved Standard (1997). Document M7-A4.

murine red blood cells = test: Red blood cell hemolysis; format: cell-based, mouse
Description: Selectivity of cyclic peptides for bacterial over mammalian cells was evaluated by measuring red blood cell hemolytic activities as described in Tosteson, M. T. Holmes, S. J., Razin, M. and Tosteson, D. C. Melittin Lysis of Red Cells, J. Membrane Biol. 87, 35-44(1985). Heparinized murine blood was centrifuged at 1000×g for 10 minutes. The supernatant and the buffy coat were removed. Erythrocytes were washed three times with 0.9% saline solution and then resuspended to a concentration of 5% in saline containing 10% FBS (v/v). Red blood cells were then treated with serial dilutions of test peptides in a 96 well plate at 37° C. for 30 minutes. Control samples included a saline solution arid 1% Triton X-100 as 0 and 100% hemolysis, respectively. In some cases, mellitin was used as a further control. Mellitin is a linear peptide that is hemolytic against mammalian red blood cells in vitro at a concentration of about 10 μg/ml. Plates were centrifuged at 1000 g for 10 minutes. Aliquots of the supernatant were diluted 2 times with saline solution and the absorbance was measured at 560 nm.

[2] = test system: S. aureus (MRSA) ATCC 33591; format: cell-based, Staphylococcus aureus; conditions: Table 9
Description: as §1, §2, §3, §4, §5

[3] = media c: Brain Heart Infusion (BHI)
[4] = media b: cation adjusted Meuller Hinton broth (MHBII)
[5] = media a: anti-microbial media-3 (AM-3)

CC(C)C[C@H]1NC(=O)[C@H](Cc2c[nH]c3ccccc23)NC(=O)[C@@H](Cc2c[nH]cn2)NC(=O)[C@H](Cc2c[nH]cn2)NC(=O)[C@@H](CO)NC(=O)[C@H](Cc2c[nH]c3ccccc23)NC(=O)[C@@H](CC(C)C)NC(=O)[C@H](Cc2c[nH]c3ccccc23)NC1=O [[SHHWLWLW-HCl] (15), SHHWLWLW] (cyclo([dS]H[dH]W[dL]W[dL]W))
VRE (in vitro activity) [1, 3]: 6 | RBC Hemolysis (HD50) (murine red blood cells): 40 | MRSA (in vitro activity) [2, 4]: 6

CC(C)C[C@@H]1NC(=O)[C@@H](Cc2c[nH]c3ccccc23)NC(=O)[C@H](Cc2ccccc2)NC(=O)[C@@H](CCCNC(=N)N)NC(=O)[C@H](CCC(N)=O)NC(=O)[C@@H](CCCNC(=N)N)NC(=O)[C@H](Cc2c[nH]c3ccccc23)NC(=O)[C@@H](Cc2c[nH]c3ccccc23)NC1=O [SEQ ID NO:68, [QRFWLWWR]] (cyclo(Q[dR]F[dW]L[dW]W[dR]))
VRE (in vitro activity) ([1]; media b: MHBII): 3.8 | RBC Hemolysis (HD50) (murine red blood cells): 60 | MRSA (in vitro activity) [2, 4]: 7.5

CC(C)C[C@H]1NC(=O)[C@H](CCCCN)NC(=O)[C@@H](Cc2c[nH]cn2)NC(=O)[C@H](CCCCN)NC(=O)[C@@H](CC(C)C)NC(=O)[C@H](Cc2c[nH]c3ccccc23)NC(=O)[C@@H](CC(C)C)NC(=O)[C@H](Cc2ccccc2)NC1=O [SEQ ID NO:49, [KHKLFLWL]] (cyclo(K[dH]K[dL]F[dL]W[dL]))
VRE (in vitro activity) [1, 3]: 25 | RBC Hemolysis (HD50) (murine red blood cells): 200 | MRSA (in vitro activity) [2, 4]: 12

CC(C)C[C@H]1NC(=O)CNC(=O)[C@@H](CC(C)C)NC(=O)[C@H](CCCCN)NC(=O)[C@@H](CO)NC(=O)[C@H](CCCCN)NC(=O)[C@@H](CC(C)C)NC(=O)CNC1=O [SEQ ID NO:56, [KSKLGLGL]] (cyclo(K[dS]K[dL]G[dL]G[dL]))
VRE (in vitro activity) [1, 3]: >240 | RBC Hemolysis (HD50) (murine red blood cells): >240 | MRSA (in vitro activity) [2, 4]: >240

CC(C)C[C@H]1NC(=O)[C@H](Cc2c[nH]c3ccccc23)NC(=O)[C@@H](Cc2c[nH]c3ccccc23)NC(=O)[C@H](CCCCN)NC(=O)[C@@H](CO)NC(=O)[C@H](CCCCN)NC(=O)[C@@H](CC(C)C)NC(=O)[C@H](Cc2c[nH]c3ccccc23)NC1=O [SEQ ID NO:67, [KWWLWLKS]] (cyclo(K[dW]W[dL]W[dL]K[dS]))
VRE (in vitro activity) ([1]; media b: MHBII): 10 | RBC Hemolysis (HD50) (murine red blood cells): >153 | MRSA (in vitro activity) [2, 4]: 7

CC(C)C[C@H]1NC(=O)[C@H](CCCCN)NC(=O)[C@@H](CO)NC(=O)[C@H](CCCCN)NC(=O)[C@@H](CC(C)C)NC(=O)[C@H](Cc2c[nH]cn2)NC(=O)[C@@H](CC(C)C)NC(=O)[C@H](Cc2c[nH]cn2)NC1=O [SEQ ID NO:103, [KSKLHLHL]] (cyclo(K[dS]K[dL]H[dL]H[dL]))
VRE (in vitro activity) [1, 3]: >320 | RBC Hemolysis (HD50) (murine red blood cells): >320 | MRSA (in vitro activity) [2, 4]: >320

CC(C)C[C@@H]1NC(=O)[C@@H](Cc2c[nH]c3ccccc23)NC(=O)[C@H](CO)NC(=O)[C@@H](Cc2c[nH]c3ccccc23)NC(=O)[C@H](CCCCN)NC(=O)[C@@H](Cc2c[nH]c3ccccc23)NC(=O)[C@H](CCCCN)NC(=O)[C@@H](Cc2c[nH]c3ccccc23)NC1=O [SEQ ID NO:107, [KWKWSWLW]] (cyclo(K[dW]K[dW]S[dW]L[dW]))
VRE (in vitro activity) [1, 3]: 12 | RBC Hemolysis (HD50) (murine red blood cells): 150 | MRSA (in vitro activity) [2, 4]: 12

CC(C)C[C@H]1NC(=O)[C@H](Cc2c[nH]c3ccccc23)NC(=O)[C@@H](Cc2ccccc2)NC(=O)[C@H](CCCCN)NC(=O)[C@@H](Cc2ccccc2)NC(=O)[C@H](Cc2c[nH]c3ccccc23)NC(=O)[C@@H](CC(C)C)NC(=O)[C@H](Cc2c[nH]c3ccccc23)NC1=O [SEQ ID NO:40, [KFWLWLWF]] (cyclo(K[dF]W[dL]W[dL]W[dF]))
VRE (in vitro activity) ([1]; media a: AM-3): >44 | RBC Hemolysis (HD50) (murine red blood cells): >44 | MRSA (in vitro activity) [2, 5]: 33

CC(C)C[C@H]1NC(=O)[C@H](Cc2c[nH]c3ccccc23)NC(=O)[C@@H](CCCCN)NC(=O)[C@H](CCCCN)NC(=O)[C@@H](CO)NC(=O)[C@H](CCCCN)NC(=O)[C@@H](CC(C)C)NC(=O)[C@H](Cc2c[nH]c3ccccc23)NC1=O [SEQ ID NO:77, [KSKKWLWL]] (cyclo(K[dS]K[dK]W[dL]W[dL]))
VRE (in vitro activity) [1, 3]: 27 | RBC Hemolysis (HD50) (murine red blood cells): >220 | MRSA (in vitro activity) [2, 4]: 13

CC(C)C[C@H]1NC(=O)[C@H](Cc2c[nH]c3ccccc23)NC(=O)[C@@H](Cc2c[nH]cn2)NC(=O)[C@H](CCCCN)NC(=O)[C@@H](Cc2c[nH]cn2)NC(=O)[C@H](CCCCN)NC(=O)[C@@H](CC(C)C)NC(=O)[C@H](Cc2c[nH]c3ccccc23)NC1=O [SEQ ID NO:73, [KHKHWLWL]] (cyclo(K[dH]K[dH]W[dL]W[dL]))
VRE (in vitro activity) [1, 3]: 18 | RBC Hemolysis (HD50) (murine red blood cells): 150 | MRSA (in vitro activity) [2, 4]: 18

CC[C@H](C)[C@@H]1NC(=O)[C@@H](Cc2c[nH]c3ccccc23)NC(=O)[C@H](CCCCN)NC(=O)[C@@H](CCCNC(=N)N)NC(=O)[C@H](C)NC(=O)[C@@H](CC(C)C)NC1=O [SEQ ID NO:114, [KWILAR]] (cyclo(K[dW]I[dL]A[dR]))
VRE (in vitro activity) [1, 3]: >200 | RBC Hemolysis (HD50) (murine red blood cells): >200 | MRSA (in vitro activity) [2, 4]: 50

CCCC[C@@H]1NC(=O)[C@@H](CC(C)C)NC(=O)[C@H](CCCCN)NC(=O)[C@@H](CO)NC(=O)[C@H](CCCCN)NC(=O)[C@@H](CC(C)C)NC(=O)[C@H](CCCC)NC(=O)[C@@H](CC(C)C)NC1=O [SEQ ID NO:59, [KSKLNleLNleL]] (cyclo(K[dS]K[dL][Nle][dL][Nle][dL]))
VRE (in vitro activity) [1, 3]: >200 | RBC Hemolysis (HD50) (murine red blood cells): >220 | MRSA (in vitro activity) [2, 4]: 220

CC[C@H](C)[C@@H]1NC(=O)[C@@H](CO)NC(=O)[C@H](CCCCN)NC(=O)[C@@H]([C@H](C)O)NC(=O)[C@H]([C@@H](C)CC)NC(=O)[C@@H](CCCNC(=N)N)NC1=O [SEQ ID NO:132, [KSIRIT]] (cyclo(K[dS]I[dR]I[dT]))
VRE (in vitro activity) [1, 3]: >200 | RBC Hemolysis (HD50) (murine red blood cells): 175 | MRSA (in vitro activity) [2, 4]: >200

CC(C)C[C@H]1NC(=O)[C@H](C)NC(=O)[C@@H](CC(C)C)NC(=O)[C@H](CCCCN)NC(=O)[C@@H]([C@H](C)O)NC(=O)[C@H](CCCCN)NC(=O)[C@@H](CC(C)C)NC(=O)[C@H](C)NC1=O [SEQ ID NO:64, [KTKLALAL]] (cyclo(K[dT]K[dL]A[dL]A[dL]))
VRE (in vitro activity) [1, 3]: >160 | RBC Hemolysis (HD50) (murine red blood cells): >160 | MRSA (in vitro activity) [2, 4]: 80

CC(C)C[C@H]1NC(=O)[C@H](Cc2c[nH]c3ccccc23)NC(=O)[C@@H](CC(C)C)NC(=O)[C@H](CCCCN)NC(=O)[C@@H]([C@H](C)O)NC(=O)[C@H](CCCCN)NC(=O)[C@@H](CC(C)C)NC(=O)[C@H](Cc2c[nH]c3ccccc23)NC1=O [SEQ ID NO:66, [KTKLWLWL]] (cyclo(K[dT]K[dL]W[dL]W[dL]))
VRE (in vitro activity) [1, 3]: 18 | RBC Hemolysis (HD50) (murine red blood cells): 150 | MRSA (in vitro activity) [2, 4]: 18

CC(C)C[C@@H]1NC(=O)[C@@H](Cc2ccccc2)NC(=O)[C@H](CCCCN)NC(=O)[C@@H](CCCCN)NC(=O)[C@H](CCCCN)NC(=O)[C@@H](Cc2ccccc2)NC(=O)[C@H](CC(C)C)NC(=O)[C@@H](Cc2ccccc2)NC1=O [SEQ ID NO:51, [KKKFLFLF]] (cyclo(K[dK]K[dF]L[dF]L[dF]))
VRE (in vitro activity) [1, 3]: 75 | RBC Hemolysis (HD50) (murine red blood cells): >300 | MRSA (in vitro activity) [2, 4]: 18

CC(C)C[C@@H]1NC(=O)[C@@H](Cc2c[nH]c3ccccc23)NC(=O)[C@H](CCCCN)NC(=O)[C@@H](CCC(=O)O)NC(=O)[C@H](CCCCN)NC(=O)[C@@H](Cc2c[nH]c3ccccc23)NC1=O [SEQ ID NO:117, [KEKWLW]] (cyclo(K[dE]K[dW]L[dW]))
VRE (in vitro activity) ([1]; media a: AM-3): 91 | RBC Hemolysis (HD50) (murine red blood cells): >121 | MRSA (in vitro activity) [2, 5]: 101

CC(C)C[C@H]1NC(=O)[C@H](C)NC(=O)[C@@H](CC(C)C)NC(=O)[C@H](CCCCN)NC(=O)[C@@H](Cc2c[nH]cn2)NC(=O)[C@H](CCCCN)NC(=O)[C@@H](CC(C)C)NC(=O)[C@H](C)NC1=O [SEQ ID NO:45, [KHKLALAL]] (cyclo(K[dH]K[dL]A[dL]A[dL]))
VRE (in vitro activity) [1, 3]: 200 | RBC Hemolysis (HD50) (murine red blood cells): >200 | MRSA (in vitro activity) [2, 4]: 50
